# Measurements reported in patent US20110281834A1, “Pharmaceutical Formulations for Iontophoretic Delivery of a Corticosteroid” (priority 2008, published 2011).
# Read-outs that look alike come from different tables or passages of the source.
# Columns and labels:
# [1] = Iontophoretic drug permeation through hairless rat skin in Franz diffusion cells; assay type: in vitro ADME
# Method: Full thickness abdominal skin freshly excised from sacrificed hairless rats was equilibrated in the receptor buffer and mounted on Franz diffusion cells (0.64 cm^2). The donor compartment (0.5 ml) contained corticosteroid in an appropriate buffer. […] For triamcinolone acetonide (TMCA), 3.5 mg/mL TMCA formulation (in 25% w/w PEG 400, 25% ETOH, 15% cremophor RH40, qs to 100% with citrate buffer pH 5.0) was used for the donor compartment. […] The receptor compartment for TMCA was citrate buffer with 20% ethanol. […] TMCA has no charge at pH 5 and was therefore delivered by anodal iontophoresis to utilize electroosmosis. […] For TMCA, the anode (Silver-Silver Chloride) was placed in the donor chamber along with drug solution and the cathode (Silver wire) was placed in the receptor chamber. Electric current (0.2 to 0.4 mA/cm^2) was applied using a custom current control device for up to 1 hr, after which experiments were either terminated or allowed to continue passively for various durations. Samples (0.3 ml) were taken from the receptor chamber at predetermined time points following iontophoresis and were replaced with the same amount of receptor buffer. The apparatus was maintained at 37° C. with constant stirring in both the donor and receptor compartments to maintain sink conditions. The samples were then analyzed by HPLC to measure drug permeation through skin. […] The mobile phase consisted of 75/25 ammonium acetate (5 mM) and acetonitrile. For TMCA, samples of receptor fluid (injection volume 20 uL, run time 8 min) were analyzed using the same HPLC system with a flow rate of 0.8 ml/min and UV detection at 237 nm. The mobile phase consisted of 70/30 methanol and water. […] Control passive experiments were conducted in the same way except for the application of electric current. Data were expressed as means±standard deviations. All experiments were performed in at least triplicate.
# Samples were removed periodically from the receptor and analyzed by HPLC.
# Samples were measured periodically from the receptor and analyzed by HPLC over 24 hrs.
# (§1) The effect of iontophoresis on the intradermal and transdermal permeation of TMCA using hairless rat skin in vitro was investigated using methods previously described. In addition, the amount of drug deposited in the stratum corneum and underlying skin after iontophoresis was quantified in vivo using tape stripping and skin extraction methods described previously. TMCA (3.5 mg/ml) was formulated in 15% cremophor RH40, 25% PEG 400 and 25% ethanol (95%), in citrate buffer pH 5.0. Anodal iontophoresis was performed for 1 h at 0.2 mA/cm^2.
# [2] = Solubility in solubilizer solutions (shaken overnight, supernatant by HPLC); assay type: physicochemical; details: for solubility: solubilizer solution, thermodynamic from solid, read-out: Solubility, Final conc
# Method: Triamcinolone acetonide is poorly ionized and has a poor solubility profile; to overcome this, individual as well as combinations of potential solubilizers were tested. TMCA (2.5 mg) was mixed into 1 mL of the individual components or mixtures of potential solubilizers and shaken overnight; drug was then added to all clear solutions which were then mixed overnight. The samples were then centrifuged and the supernatants analyzed by HPLC to determine drug solubility.
# DEX-P (100 mg) was mixed into 1 mL of the individual components or mixtures of potential solubilizers and shaken overnight. Additional drug (100 mg) was added to clear solutions and mixed overnight. The samples were then centrifuged and the supernatants analyzed by HPLC to determine drug solubility.
# [3] = In vivo skin delivery: tape stripping (stratum corneum) and skin extraction (underlying skin); set-up: species or system hairless rat
# Text: After wiping excess drug off the skin using a moist kimwipe, pre-weighed tape strips were placed on the area exposed to the drug and made sure they adhered to the skin by rolling with a glass rod for 30 seconds. After rolling, the tape strips were held from one end with a pair of forceps and ripped off the skin very quickly. The first strip was discarded to remove the remnants of the drug on the skin. This process was continued with 30 strips to fully remove the stratum corneum and each strip analyzed for drug content by immersing in 1 mL extraction buffer for 1 hr under gentle stirring (150 rpm). […] All tape strip extracts were analyzed with HPLC. […] TEWL values were also recorded after every five strips.
# After tape stripping, the rats were euthanized and the underlying skin excised. Before proceeding for skin extraction studies, the weight of the excised skin piece was recorded. This excised skin was minced into small pieces and placed into glass vials. To this minced skin, 1 mL deionised water was added and shaken for 30 minutes on a shaker. To this 100 μL of 0.1% HCl was added and centrifuged. To the centrifuged sample 6 mL of methylene chloride was added and shaken for 30 minutes. The methylene chloride (organic) extract was then evaporated under nitrogen. The methylene chloride addition and evaporation step was repeated and combined with the previous extraction. After evaporation, the samples were reconstituted using 1 mL of acetonitrile, filtered and filled in HPLC vials and analyzed accordingly. For TMCA, 30/70 chloroform and methanol was used as the extraction solvent. […] The measured drug levels from the skin were corrected for recovery.
# as §1
# Hairless rats (n=4 per group) were anesthetized with ketamine (75 mg/kg) and xylazine (10 mg/kg) administered intraperitoneally. Once the rats were anaesthetized, the abdominal area was wiped with water and alcohol swabs. The cartridge loaded with the donor formulation was placed on the abdomen of each rat and connected to the power supply (Keithley Instruments, Cleveland, Ohio) for cathodal delivery. The counter electrode was placed around 3 cm away from the drug cartridge, and connected to the respective polarity of the power supply. The cartridge and the counter electrode were made sure to be in contact with the skin and a bandage was placed to prevent them from any further movement. Skin portion around the cartridge approximately 0.5 cm was marked for excision after the study to determine the lateral diffusion of the drug. Iontophoresis was conducted at a current density of 0.2 mA/cm^2 for 15 or 60 minutes. The donor cartridge was removed from the skin after iontophoresis and the skin was wiped with a moist kimwipe to remove any remaining drug on the skin. The skin was then tape stripped (30 strips) to remove the stratum corneum and the drug in the strips evaluated (with the first strip discarded for surface drug removal). The drug in the underlying skin was then extracted.
# [4] = 3.5 mg/ml, pH 5.0, anodal iontophoresis 0.2 mA/cm^2 for 1 h
# [5] = 3.5 mg/ml, pH 5.0, passive delivery
# [6] = cathodal 0.2 mA/cm2 for 15 minutes, FIG. 6B
# [7] = cathodal 0.2 mA/cm^2 for 60 minutes, FIG. 6A
structure (smiles),measurement,setting,value
"CC1(C)O[C@@H]2C[C@H]3[C@@H]4CCC5=CC(=O)C=C[C@]5(C)[C@@]4(F)[C@@H](O)C[C@]3(C)[C@]2(C(=O)CO)O1 [TMCA, triamcinolone acetonide]",levels in the receptor chamber,"[1]; 3.5 mg/ml in 15% cremophor RH40, 25% PEG 400, 25% ethanol, citrate buffer pH 5.0, with or without anodal iontophoresis 0.2 mA/cm^2 for 1 h",No detectable levels
same,"Solubility, Final conc","[2]; 15% cremophor, 25% ethanol, 25% PEG 400 (w/w)",4420 µg/mL
same,"Solubility, Final conc","[2]; 15% cremophor, 25% ethanol, 25% PEG 3350 (w/w)",1980 µg/mL
same,solubility,"[2]; aqueous with cosolvent or surfactant or cyclodextrin, 5% tween 80 (w/w)",120 µg/mL
same,solubility,"[2]; aqueous with cosolvent or surfactant or cyclodextrin, 15% cremophor (w/w)",480 µg/mL
same,solubility,"[2]; aqueous with cosolvent or surfactant or cyclodextrin, 15% cremophor, 25% ethanol (w/w)",1380 µg/mL
same,solubility,"[2]; aqueous with cosolvent or surfactant or cyclodextrin, 15% cremophor, 25% ethanol, 25% glycerin (w/w)",2430 µg/mL
same,solubility,"[2]; aqueous with cosolvent or surfactant or cyclodextrin, 15% cremophor, 50% PEG 400 (w/w)",1240 µg/mL
same,solubility,"[2]; aqueous with cosolvent or surfactant or cyclodextrin, 15% cremophor, 50% glycerin (w/w)",1180 µg/mL
same,solubility,"[2]; aqueous with cosolvent or surfactant or cyclodextrin, 25% PEG 400 (w/w)",70 µg/mL
same,solubility,"[2]; aqueous with cosolvent or surfactant or cyclodextrin, 25% PEG 3350 (w/w)",80 µg/mL
same,solubility,"[2]; aqueous with cosolvent or surfactant or cyclodextrin, 25% Propylene glycol (w/w)",60 µg/mL
same,solubility,"[2]; aqueous with cosolvent or surfactant or cyclodextrin, 25% ethanol (w/w)",230 µg/mL
same,solubility,"[2]; aqueous with cosolvent or surfactant or cyclodextrin, 25% glycerin (w/w)",30 µg/mL
same,"amount deposited in the underlying skin after tape stripping, iontophoresis",[3]; [4],1.15 ± 0.32 µg
same,"amount in the stratum corneum, iontophoresis",[3]; [4],16.43 ± 1.99 µg
same,"amount deposited in the underlying skin after tape stripping, passive",[3]; [5],0.34 ± 0.08 µg
same,"amount in the stratum corneum, passive",[3]; [5],19.66 ± 1.35 µg
"C[C@@H]1C[C@H]2[C@@H]3CCC4=CC(=O)C=C[C@]4(C)[C@@]3(F)[C@@H](O)C[C@]2(C)[C@@]1(O)C(=O)COP(=O)(O)O [DEX, dexamethasone sodium phosphate]","permeation over time, 10 mg/mL","[1]; 10 mg/mL in phosphate buffer pH 7.4, cathodal 0.2 mA/cm^2 for 1 hr, 24 hrs, FIG. 4",lower permeation over time compared to the higher drug concentrations
same,"cumulative permeation over 24 hrs, iontophoresis","[1]; 25 mg/mL in phosphate buffer pH 7.4, cathodal 0.4 mA/cm^2 for 1 hr, sampled 24 hrs, FIG. 2",increased quite rapidly during the initial several hours and continued to increase up to 24 hrs
same,"cumulative permeation over 24 hrs, passive","[1]; 25 mg/mL in phosphate buffer pH 7.4, passive delivery (no current), FIG. 2",initially low but gradual increase
same,"permeation over time, 4 hr iontophoresis","[1]; 25 mg/mL, pH 7.4, cathodal 0.4 mA/cm^2 for 4 hr, FIG. 3",highest permeation
same,"cumulative permeation, cathodal vs anodal iontophoresis","[1]; 25 mg/mL, cathodal in phosphate buffer pH 7.4 vs anodal in citrate buffer pH 3.5, 0.4 mA/cm^2 for 2 hours, sampled for 24 hrs, FIG. 1",significant improvement in permeation compared to anodal iontophoresis
same,"permeation over time, 25 and 50 mg/mL","[1]; 25 and 50 mg/mL in phosphate buffer pH 7.4, cathodal 0.2 mA/cm^2 for 1 hr, 24 hrs, FIG. 4",similar
same,solubility,"[2]; aqueous buffer, Phosphate buffer",70000 µg/mL
same,solubility,"[2]; aqueous with cosolvent or surfactant or cyclodextrin, 15% ethanol (95%), 20% PEG400, 20% glycerin, in phosphate buffer (w/w)",156000 µg/mL
same,solubility,"[2]; aqueous with cosolvent or surfactant or cyclodextrin, 15% ethanol (95%), 30% PEG400, 20% glycerin, in phosphate buffer (w/w)",197000 µg/mL
same,drug level in the skin over time after iontophoresis (depot),"[3]; 0.2 mA/cm2 for 15 minutes, measured 0, 24 and 48 hours after, FIG. 6C",decreased slowly over time and was detectable at 48 hrs after iontophoresis
same,"initial drug level in stratum corneum, iontophoresis 15 min",[3]; [6],13.63 ± 2.4 µg
same,"initial drug level in underlying skin, iontophoresis 15 min",[3]; [6],1.70 ± 1.70 µg
same,"amount in stratum corneum, iontophoresis 60 min",[3]; [7],23.70 ± 6.19 µg
same,"amount in underlying skin, iontophoresis 60 min",[3]; [7],2.18 ± 0.69 µg
same,"localization of drug in skin, passive","[3]; passive group, 60 minutes",all of the drug was localized in the stratum corneum layer
same,"total delivered into skin, iontophoresis","[3]; phosphate buffer pH 7.4, cathodal 0.2 mA/cm^2 for 60 minutes, immediately after, FIG. 6A",25.88 ± 5.91 µg
same,"total delivered into skin, passive","[3]; phosphate buffer pH 7.4, passive treatment 60 minutes, FIG. 6A",13.31 ± 2.69 µg
same,drug in peripheral skin areas outside the contact area (lateral diffusion),[3]; skin about 0.5 cm around the cartridge,No drug was detected
